From patent US20250074892A1, “CARBONYL BRIDGED HETEROCYCLIC COMPOUND, AND COMPOSITION AND APPLICATION THEREOF” (BEIJING SCITECH-MQ PHARMACEUTICALS LIMITED, priority 2022, published 2025)
Read-outs that look alike come from different tables or passages of the source.

Test: Mouse PK&BBB (pharmacokinetics and brain penetration)
Assay type: in vivo, CD-1 mice
Protocol: In this assay, the pharmacokinetic characteristics and ability to penetrate the blood-brain barrier of the compounds of the present application were assayed after administration of some of the compounds of the present application to SD rats, CD-1 mice or beagle dogs by single oral administration and intravenous injection.
1. Intravenous (IV) injection group: an appropriate amount of the assay compound was weighed, and completely dissolved in an appropriate volume of vehicle. The mixture was stirred, vortexed and/or sonicated. Once a solution was obtained, the vehicle was gradually added to a final volume to reach the target concentration. The solution was vortexed, and sonicated to obtain a homogeneous solution. The solution was filtered through a […] PVDF membrane.
2. Oral (PO) group: an appropriate amount of the assay compound was weighed, and completely dissolved in an appropriate volume of vehicle. The mixture was stirred, vortexed and/or sonicated. Once a solution was obtained, the vehicle was gradually added to a final volume to reach the target concentration. The solution was vortexed, and sonicated to obtain a homogeneous solution.
Meanwhile, the IV group was not fasted and the PO group was fasted overnight (>12 hrs) and given food 2 hrs after drug administration. All animals had free access to water. The dosing regimen and pharmacokinetic sampling regimen are given in Table 10 and Table 11 below, respectively.
Mice were administered according to the above protocol, and blood and brain tissue samples were collected and processed at predetermined time points (collection and processing were performed according to conventional methods in the art).
The brain was weighed and homogenized by adding 4 times of ultrapure water. Six times volume of acetonitrile was added respectively to the whole blood samples and brain homogenate (20 times volume of acetonitrile was added to the whole blood sample of mouse PK). The mixture was vortexed for 1 min and then centrifuged at 4° C., 4500 rpm for 15 min. According to the instrument response, the supernatant was diluted with diluent and the sample was analyzed by LC/MS.
Pharmacokinetic parameters were calculated using WinNonlin software. The following pharmacokinetic parameters were calculated if appropriate plasma/whole blood drug concentration-time data were available: CL (clearance); Vd (apparent volume of distribution); T1/2 (elimination half-life time); Cmax (peak concentration); Tmax (time to peak); AUC (area under plasma drug concentration-time curve); MRT (mean retention time); F % (bioavailability).

[1] = CD-1, mouse, whole blood, iv, 2 mg/kg, IV 2 mg/kg, read-out: Blood drug concentration
[2] = CD-1, mouse, whole blood, po, 20 mg/kg, PO 20 mg/kg, read-out: Blood drug concentration

Compound `O=C(C1CCN(c2cc(-c3cc(OCCCO)ccc3F)ccn2)CC1)N1N=CC[C@H]1c1cc(F)cc(F)c1` (racemic) [Example 40] has a Kp at 2 h (CD-1, brain / whole blood, PO 20 mg/kg, 2 h after administration, read-out: Brain/blood ratio) of 1.85, a concentration at 2 h (CD-1, mouse, brain, po, 20 mg/kg, PO 20 mg/kg, 2 h after administration, read-out: Brain concentration) of 244 ng/g and a concentration at 0 h [1] of 0 ng/mL. The concentration at 0.083 h (CD-1, mouse, whole blood, iv, 2 mg/kg, IV 2 mg/kg, 0.083 hr, read-out: Blood drug concentration) was 632 ± 86 ng/mL, the concentration at 0.25 h [1] was 323 ± 81 ng/mL and the concentration at 0.5 h [1] was 150 ± 53 ng/mL. It also gave a concentration at 1 h [1] of 60.7 ± 28.5 ng/mL, a concentration at 2 h (CD-1, mouse, whole blood, iv, 2 mg/kg, IV 2 mg/kg, 2 hr, read-out: Blood drug concentration) of 12.3 ± 8.4 ng/mL and a concentration at 4 h [1] of 1.77 ± 1.12 ng/mL. It also gave a concentration at 7 hr [1] of 0.854 ng/mL, a concentration at 0 h [2] of 0 ng/mL and a concentration at 0.25 h [2] of 284 ± 26 ng/mL. For the same compound, the concentration at 0.5 h [2] was 405 ± 46 ng/mL, the concentration at 1 h [2] was 399 ± 77 ng/mL and the concentration at 2 h (CD-1, mouse, whole blood, po, 20 mg/kg, PO 20 mg/kg, 2 hr, read-out: Blood drug concentration) was 163 ± 2 ng/mL. It also gave a concentration at 4 h [2] of 34.9 ± 19 ng/mL, a concentration at 7 hr [2] of 4.85 ± 3.83 ng/mL and a concentration at 2 h (CD-1, mouse, whole blood, po, 20 mg/kg, PO 20 mg/kg, whole blood, 2 h after administration, read-out: Blood drug concentration) of 132 ng/mL. The AUC(0-inf) (CD-1, whole blood, IV 2 mg/kg) was 308 ± 82 ng·h/mL, the AUC(0-t) (CD-1, whole blood, IV 2 mg/kg) was 307 ± 82 ng·h/mL and the Vd (CD-1, whole blood, IV 2 mg/kg) was 6.97 ± 1.13 L/kg. The half-life (CD-1, whole blood, IV 2 mg/kg) was 45.3 ± 17.9 min, the clearance (CD-1, whole blood, IV 2 mg/kg, read-out: Cl—obs) was 114 ± 30.5 mL/min/kg and the AUC(0-inf) (CD-1, whole blood, PO 20 mg/kg) was 869 ± 57 ng·h/mL. For the same compound, the AUC(0-t) (CD-1, whole blood, PO 20 mg/kg) was 861 ± 54 ng·h/mL, the Cmax (CD-1, whole blood, PO 20 mg/kg) was 421 ± 64 ng/mL and the Tmax (CD-1, whole blood, PO 20 mg/kg) was 50 ± 17.3 min. The half-life (CD-1, whole blood, PO 20 mg/kg) was 58 ± 12.5 min and the bioavailability (CD-1, whole blood, PO 20 mg/kg vs IV 2 mg/kg) was 28.2 ± 1.9%.
